# Test results reported in patent US9161935B2 (TEVA PHARMACEUTICAL INDUSTRIES, LTD., priority 2012, dated 2015).
# System: Sub-Populations of Crohn's Disease Patients
# Assay: CD-LAQ-201 sub-populations of Crohn's disease patients (Example 2)
# Assay type: in vivo, human
# Procedure: This study was conducted according and with similar requirements as presented in Example 1. […] Patients, who have received anti-TNFαs in the past, tend to reflect a more severe, refractory segment of the Crohn's disease population. […] This sub-cohort analysis describes remission rates at week 8 for patients who were classified as having a predominantly inflammatory disease (based on the Montreal classifications) versus those that have a fibrostenotic or penetrating disease.
# [1] = Laq 1.0 mg, Previous use of anti-TNFαs YES, week 8
# [2] = Laq 1.5 mg, Fibrostenotic, week 8
# [3] = Laq 1.5 mg, Inflammatory, week 8
# [4] = Laq 1.5 mg, Oral steroids on Baseline NO
# [5] = Laq 1.5 mg, Oral steroids on Baseline NO, week 8
# [6] = Laq 1.5 mg, Oral steroids on Baseline YES
# [7] = Laq 1.5 mg, Oral steroids on Baseline YES, week 8
# [8] = Laq 1.5 mg, Previous Operations NO
# [9] = Laq 1.5 mg, Previous Operations NO, week 8
# [10] = Laq 1.5 mg, Previous Operations YES
# [11] = Laq 1.5 mg, Previous Operations YES, week 8
# [12] = Laq 1.5 mg, Previous use of anti-TNFαs NO
# [13] = Laq 1.5 mg, Previous use of anti-TNFαs NO, week 8
# [14] = Laq 1.5 mg, Previous use of anti-TNFαs YES
# [15] = Laq 1.5 mg, Previous use of anti-TNFαs YES, week 8
# [16] = Laq 2.0 mg, Fibrostenotic, week 8
# [17] = Laq 2.0 mg, Inflammatory, week 8
# [18] = Laq 2.0 mg, Oral steroids on Baseline NO
# [19] = Laq 2.0 mg, Oral steroids on Baseline NO, week 8
# [20] = Laq 2.0 mg, Oral steroids on Baseline YES
# [21] = Laq 2.0 mg, Oral steroids on Baseline YES, week 8
# [22] = Laq 2.0 mg, Previous Operations NO
# [23] = Laq 2.0 mg, Previous Operations NO, week 8
# [24] = Laq 2.0 mg, Previous Operations YES
# [25] = Laq 2.0 mg, Previous Operations YES, week 8
# [26] = Laq 2.0 mg, Previous use of anti-TNFαs NO
# [27] = Laq 2.0 mg, Previous use of anti-TNFαs NO, week 8
# [28] = Laq 2.0 mg, Previous use of anti-TNFαs YES
# [29] = Laq 2.0 mg, Previous use of anti-TNFαs YES, week 8
compound,measurement,setting,value
CCN(C(=O)c1c(O)c2c(Cl)cccc2n(C)c1=O)c1ccccc1 [laquinimod],Responders100 - N (%): N,"Laq 1.0 mg, Previous use of anti-TNFαs YES",5
same,Remission - N (%): %,[1],16.7%
same,Remission - N (%): N,[1],3
same,CDAI Change from Baseline - Mean ± SD,"Laq 1.5 mg, Fibrostenotic",−51.8
same,Responders70 - N (%): %,"Laq 1.5 mg, Fibrostenotic",27.8%
same,Responders70 - N (%): N,"Laq 1.5 mg, Fibrostenotic",5
same,Responders100 - N (%): %,"Laq 1.5 mg, Fibrostenotic",27.8%
same,Responders100 - N (%): N,"Laq 1.5 mg, Fibrostenotic",5
same,Remission - N (%): %,[2],11.1%
same,Remission - N (%): N,[2],2
same,CDAI Change from Baseline - Mean ± SD,"Laq 1.5 mg, Inflammatory",−43.8
same,Responders70 - N (%): %,"Laq 1.5 mg, Inflammatory",36.4%
same,Responders70 - N (%): N,"Laq 1.5 mg, Inflammatory",4
same,Responders100 - N (%): %,"Laq 1.5 mg, Inflammatory",27.3%
same,Responders100 - N (%): N,"Laq 1.5 mg, Inflammatory",3
same,Remission - N (%): %,[3],18.2%
same,Remission - N (%): N,[3],2
same,CDAI Change from Baseline - Mean ± SD,[4],−46.8
same,Responders70 - N (%): %,[4],25.0%
same,Responders70 - N (%): N,[4],5
same,Responders100 - N (%): %,[4],20.0%
same,Responders100 - N (%): N,[4],4
same,Remission - N (%): %,[5],10.0%
same,Remission - N (%): N,[5],2
same,CDAI Change from Baseline - Mean ± SD,[6],−52.6
same,Responders70 - N (%): %,[6],44.4%
same,Responders70 - N (%): N,[6],4
same,Responders100 - N (%): %,[6],44.4%
same,Responders100 - N (%): N,[6],4
same,Remission - N (%): %,[7],22.2%
same,Remission - N (%): N,[7],2
same,CDAI Change from Baseline - Mean ± SD,[8],−68.3
same,Responders70 - N (%): %,[8],43.8%
same,Responders70 - N (%): N,[8],7
same,Responders100 - N (%): %,[8],37.5%
same,Responders100 - N (%): N,[8],6
same,Remission - N (%): %,[9],25.0%
same,Remission - N (%): N,[9],4
same,CDAI Change from Baseline - Mean ± SD,[10],−26.0
same,Responders70 - N (%): %,[10],15.4%
same,Responders70 - N (%): N,[10],2
same,Responders100 - N (%): %,[10],15.4%
same,Responders100 - N (%): N,[10],2
same,Remission - N (%): %,[11],0.0%
same,Remission - N (%): N,[11],0
same,CDAI Change from Baseline - Mean ± SD,[12],−95.5
same,Responders70 - N (%): %,[12],54.5%
same,Responders70 - N (%): N,[12],6
same,Responders100 - N (%): %,[12],45.5%
same,Responders100 - N (%): N,[12],5
same,Remission - N (%): %,[13],27.3%
same,Remission - N (%): N,[13],3
same,CDAI Change from Baseline - Mean ± SD,[14],−18.4
same,Responders70 - N (%): %,[14],16.7%
same,Responders70 - N (%): N,[14],3
same,Responders100 - N (%): %,[14],16.7%
same,Responders100 - N (%): N,[14],3
same,Remission - N (%): %,[15],5.6%
same,Remission - N (%): N,[15],1
same,CDAI Change from Baseline - Mean ± SD,"Laq 2.0 mg, Fibrostenotic",−40.7
same,Responders70 - N (%): %,"Laq 2.0 mg, Fibrostenotic",22.2%
same,Responders70 - N (%): N,"Laq 2.0 mg, Fibrostenotic",4
same,Responders100 - N (%): %,"Laq 2.0 mg, Fibrostenotic",22.2%
same,Responders100 - N (%): N,"Laq 2.0 mg, Fibrostenotic",4
same,Remission - N (%): %,[16],16.7%
same,Remission - N (%): N,[16],3
same,CDAI Change from Baseline - Mean ± SD,"Laq 2.0 mg, Inflammatory",−33.1
same,Responders70 - N (%): %,"Laq 2.0 mg, Inflammatory",36.4%
same,Responders70 - N (%): N,"Laq 2.0 mg, Inflammatory",4
same,Responders100 - N (%): %,"Laq 2.0 mg, Inflammatory",36.4%
same,Responders100 - N (%): N,"Laq 2.0 mg, Inflammatory",4
same,Remission - N (%): %,[17],18.2%
same,Remission - N (%): N,[17],2
same,CDAI Change from Baseline - Mean ± SD,[18],−39.7
same,Responders70 - N (%): %,[18],29.2%
same,Responders70 - N (%): N,[18],7
same,Responders100 - N (%): %,[18],29.2%
same,Responders100 - N (%): N,[18],7
same,Remission - N (%): %,[19],16.7%
same,Remission - N (%): N,[19],4
same,CDAI Change from Baseline - Mean ± SD,[20],−20.3
same,Responders70 - N (%): %,[20],20.0%
same,Responders70 - N (%): N,[20],1
same,Responders100 - N (%): %,[20],20.0%
same,Responders100 - N (%): N,[20],1
same,Remission - N (%): %,[21],20.0%
same,Remission - N (%): N,[21],1
same,CDAI Change from Baseline - Mean ± SD,[22],−54.6
same,Responders70 - N (%): %,[22],37.5%
same,Responders70 - N (%): N,[22],6
same,Responders100 - N (%): %,[22],37.5%
same,Responders100 - N (%): N,[22],6
same,Remission - N (%): %,[23],18.8%
same,Remission - N (%): N,[23],3
same,CDAI Change from Baseline - Mean ± SD,[24],−14.2
same,Responders70 - N (%): %,[24],15.4%
same,Responders70 - N (%): N,[24],2
same,Responders100 - N (%): %,[24],15.4%
same,Responders100 - N (%): N,[24],2
same,Remission - N (%): %,[25],15.4%
same,Remission - N (%): N,[25],2
same,CDAI Change from Baseline - Mean ± SD,[26],−56.4
same,Responders70 - N (%): %,[26],55.6%
same,Responders70 - N (%): N,[26],10
same,Responders100 - N (%): %,[26],33.3%
same,Responders100 - N (%): N,[26],6
same,Remission - N (%): %,[27],27.8%
same,Remission - N (%): N,[27],5
same,CDAI Change from Baseline - Mean ± SD,[28],−102.2
same,Responders70 - N (%): %,[28],50.0%
same,Responders70 - N (%): N,[28],6
same,Responders100 - N (%): %,[28],50.0%
same,Responders100 - N (%): N,[28],6
same,Remission - N (%): %,[29],25.0%
same,Remission - N (%): N,[29],3
same,effect of oral steroids together with laquinimod on remission at week 8,laquinimod 0.5 mg,potential synergistic effect
same,effect on remission at week 8 with or without previous operations,laquinimod 0.5 mg,had an effect over placebo in both sub-populations
same,remission in predominantly inflammatory disease vs the complementary cohort,"laquinimod 0.5 mg and 1 mg, week 8",may work better
